Data reported in patent US20080286771A1, “Method of Predicting the Responsiveness of a Tumour to Erbb Receptor Drugs” (priority 2004, published 2008).
Like-named read-outs stand apart in the source and are kept apart here.

Tests used:
advanced NSCLC [1] = settings: advanced NSCLC previously treated with chemotherapy, cited from earlier work
[2] = system: RT112 bladder tumour cell line xenograft; assay: RT112 xenograft response to gefitinib; assay type: in vivo, nude mice
Source text: (§1) This definition is based on the response observed when the tumour cell line is implanted into nude mice and grown as a xenograft. This definition has been used for all the pre-clinical studies described herein.

[3] = system: DU145 tumour cell line xenograft; assay: DU145 xenograft response to gefitinib; assay type: in vivo, nude mice
Source text: (§2) This definition is based on the response observed when the tumour cell line is implanted into nude mice and grown as a xenograft. This definition has been used for all the pre-clinical studies described herein. […] BT474 (ATCC No. HTB-20)-breast tumour cell line • b. DU145 (ATCC No. HTB-81)-[…] tumour cell line • c. MCF7 (ATCC No. HTB-22, sourced from ICRP (now CR-UK), London), -breast tumour cell line • d. GEO colon tumour cell line.

[4] = system: MCF7 breast tumour cell line xenograft; assay: MCF7 xenograft response to gefitinib; assay type: in vivo, nude mice
Source text: as §2

[5] = system: MiaPac2 pancreatic tumour cell line xenograft; assay: MiaPac2 xenograft response to gefitinib; assay type: in vivo, nude mice
Source text: as §1

[6] = system: A431 epidermoid cell line xenograft; assay: A431 xenograft response to gefitinib; assay type: in vivo, nude mice
Source text: as §2

[7] = system: GEO colon tumour cell line xenograft; assay: GEO xenograft response to gefitinib; assay type: in vivo, nude mice
Source text: as §2

[8] = system: PC3 prostate tumour cell line xenograft; assay: PC3 xenograft response to gefitinib; assay type: in vivo; settings: PC3 xenograft in nude mice
Source text: (§3) This definition is based on the response observed when the tumour cell line is implanted into nude mice and grown as a xenograft. This definition has been used for all the pre-clinical studies described herein. Initially a small panel of six human tumour cell lines were assembled, three which are sensitive to gefitinib and three which are resistant to gefitinib in the xenograft setting defined above. The sensitive cell lines were; • 1.

[9] = system: Lovo colon tumour cell line xenograft; assay: Lovo xenograft response to gefitinib; assay type: in vivo; settings: Lovo xenograft in nude mice
Source text: as §3

[10] = system: SW620 colon tumour cell line xenograft; assay: SW620 xenograft response to gefitinib; assay type: in vivo, nude mice
Source text: as §1

[11] = system: A549 lung tumour cell line xenograft; assay: A549 xenograft response to gefitinib; assay type: in vivo; settings: A549 xenograft in athymic mice, oral dosing once daily, mean tumour volume
Source text: as §2

[12] = system: Calu 6 lung tumour cell line xenograft; assay: Calu 6 xenograft response to gefitinib; assay type: in vivo; settings: Calu 6 xenograft in nude mice
Source text: as §3

KB cell line xenograft = assay: KB xenograft response to gefitinib; assay type: in vivo; settings: KB xenograft in nude mice
Source text: as §3

[13] = system: MDAMB231 breast tumour cell line xenograft; assay: MDAMB231 xenograft response to gefitinib; assay type: in vivo, nude mice
Source text: as §1

[14] = system: MKN45 gastric tumour cell line xenograft; assay: MKN45 xenograft response to gefitinib; assay type: in vivo; settings: MKN45 xenograft in athymic mice, oral dosing once daily, mean tumour volume
Source text: as §3

[15] = system: HT29 colon tumour cell line xenograft; assay: HT29 xenograft response to gefitinib; assay type: in vivo; settings: HT29 xenograft in nude mice
Source text: as §3

[16] = system: BT474 breast tumour cell line xenograft; assay: BT474 xenograft response to gefitinib; assay type: in vivo, nude mice
Source text: as §2

advanced NSCLC [17] = settings: cited from earlier work; for Objective response rate (Complete Response+Partial Response): advanced NSCLC previously treated with chemotherapy
[18] = system: HX147 lung tumour cell line xenograft; assay: HX147 xenograft response to gefitinib; assay type: in vivo, nude mice
Source text: as §1

## C#Cc1cccc(Nc2ncnc3cc(OCCOC)c(OCCOC)cc23)c1 [erlotinib]
Advanced NSCLC [1]; across the population
  prolongs survival: ~2 months
Advanced NSCLC [1]
  reduction in risk of death at one year: 41%

## COc1cc2ncnc(Nc3ccc(F)c(Cl)c3)c2cc1OCCCN1CCOCC1 [gefitinib, N-(3-chloro-4-fluorophenyl)-7-methoxy-6-(3-morpholinopropoxy)quinazolin-4-amine]
[2]
  response when grown as a xenograft (sensitive/resistant): resistant
[3]
  response when grown as a xenograft (sensitive/resistant): sensitive
[4]
  response when grown as a xenograft (sensitive/resistant): sensitive
[5]
  response when grown as a xenograft (sensitive/resistant): resistant
[6]
  response when grown as a xenograft (sensitive/resistant): sensitive
[7]
  response when grown as a xenograft (sensitive/resistant): sensitive
[8]
  response when grown as a xenograft (sensitive/resistant): resistant
[9]
  response when grown as a xenograft (sensitive/resistant): sensitive
[10]
  response when grown as a xenograft (sensitive/resistant): resistant
[11]
  response when grown as a xenograft (sensitive/resistant): sensitive
[12]
  response when grown as a xenograft (sensitive/resistant): resistant
KB cell line xenograft
  response when grown as a xenograft (sensitive/resistant): sensitive
[13]
  response when grown as a xenograft (sensitive/resistant): resistant
[14]
  response when grown as a xenograft (sensitive/resistant): resistant
[15]
  response when grown as a xenograft (sensitive/resistant): sensitive
[16]
  response when grown as a xenograft (sensitive/resistant): sensitive
Advanced NSCLC [17]; IDEAL 1 trial, predominantly Japanese
  Objective response rate (Complete Response+Partial Response): 18.4%
Advanced NSCLC [17]; IDEAL 2 trial, predominantly European-derived population
  Objective response rate (Complete Response+Partial Response): 11.8%
Advanced NSCLC [17]; IDEAL trials
  patients overall benefit (objective response, stable disease and/or symptom improvement): approximately 50%
Advanced NSCLC [17]; single agent, advanced NSCLC patients
  toxicity: limited toxicity
[18]
  response when grown as a xenograft (sensitive/resistant): resistant
